≈ marks a conversion by molar mass, not a printed value. Where “and” joins values, the source holds several entries; their conditions need not be identical. Equal entries are not always repeated. Where two headings read alike, the source gives them in different places.
Columns and labels:
[1] = tested on: human colon carcinoma cells HCT-15; assay: Human colon tumor test in vitro, HCT-15 cell growth inhibition; type: cell-based; settings: for IC50: Homo sapiens, HCT-15, 72 h, read-out: in vitro HCT-15 ID50 (50 percent inhibition of number of doublings); for in vitro HCT-15 ID50 (50 percent inhibition of number of doublings): 4320 min
Method: The compound of this invention were also tested for their ability to inhibit the growth of human colon carcinoma cells in vitro.
The human colon carcinoma cells, designated HCT-15, were derived from a specimen of an adenocarcinoma of human colon removed during surgery. The cells were grown in Roswell Park Medical Institute (RPMI) Medium 1640 supplemented with 10% heat inactivated fetal calf serum, penicillin (100 units/ml), streptomycin (100 μg/ml), gentamicin (20 μg/ml), fungizone (25 μg/ml), 0.075 percent sodium bicarbonate, […] 4-(2-hydroxyethyl)-1-piperazineethanesulfonic acid and […] N-tris(hydroxymethyl)methylglycine. […] On day 1 cells from sample dishes were harvested using trypsin (0.25%) treatment and counted with a hemocytometer to determine the number of cells per dish at the time of the addition of the compounds. Compounds of this invention were added in varying concentrations to other cultures. On day 4, treated and control cultures were harvested by trypsin treatment and the number of cells was determined. The number of doublings for the control cells was determined from the cell numbers on days 1 and 4. The ID50, the concentration of compound required to inhibit by 50 percent the number of doublings, was then calculated from the dose-response curve in which cell numbers were plotted on log-log paper against compound concentrations in micrograms per ml.

L1210 leukemia = assay: Lymphoid Leukemia L1210, survival of tumored mice; type: in vivo, CD2F1 mice; settings: for response vs control in vivo at 100 mg/kg: 100 mg/kg i.p.; for response vs control in vivo at 12.5 mg/kg: 12.5 mg/kg i.p.
Method: The efficacy of the compounds of this invention against the transplanted mouse tumors was evaluated in test systems currently in use at the National Cancer Institute for the detection and assessment of anticancer activity. […] J. Cancer, 17, 129-142, (1981); Venditti, J. M., Seminars in Oncology, 8 (4) (1981); Goldin, A. and J. M. Venditti, in Recent Results in Cancer Research, 70, S. K. Carter and Y. Sakurai, Eds., Springer-Verlag, Berlin/Heidelberg, 1980].
The animals used in this test were CD2 F1 mice, all males weighing a minimum of 18 g and all within a 4 g weight range at the start of the test. The test group consisted of six mice. The tumor was implanted in each of the test mice by the intraperitoneal injection of 0.1 ml of diluted ascitic fluid containing 10^5 cells drawn from a mouse with L1210 leukemia. The test compounds were suspended in hydroxypropylcellulose or saline with Tween® 80 surfactant or dissolved in saline and injected intraperitoneally, at various doses, once daily for nine consecutive days starting on day one relative to the day of tumor inoculation (day 0). The control mice received injections of saline or hydroxypropylcellulose vehicle only. The mice were weighed and survivors were recorded on a regular basis for 30 days. The median survival time and the ratio of the median survival time for the treated (T) and control (C) mice was calculated. […] Drug effectiveness was assessed on the basis of the survival time. Results were expressed as a percentage of the control survival time (Median Survival Time: T/C ×100%). The criterion for effectiveness was determined by: T/C×100≥125 percent.

[2] = HCT-15 cells, compound day 1 to day 4
[3] = Mus musculus, L1210, ip, 720 h, read-out: L1210 Leukemia % T/C (median survival time)
[4] = Mus musculus, L1210, ip, 720 h, 75 mg/kg i.p., read-out: L1210 Leukemia % T/C (median survival time)
[5] = Mus musculus, L1210, ip, 720 h, 25 mg/kg i.p., read-out: L1210 Leukemia % T/C (median survival time)
[6] = Mus musculus, L1210, ip, 720 h, 37.5 mg/kg i.p., read-out: L1210 Leukemia % T/C (median survival time)
[7] = Mus musculus, L1210, ip, 720 h, 50 mg/kg i.p., read-out: L1210 Leukemia % T/C (median survival time)

SMILES: CSc1ccc2nc(-c3ccc(-c4ccccc4)cc3)c(C)c(C(=O)O)c2c1 [Example 161]
- IC50 [1, 2]: > 1 µg/mL
- response vs control in vivo at 100 mg/kg (L1210 leukemia; [3]): 148%

SMILES: Cc1c(-c2ccc(C3CCCCC3)cc2)nc2ccc(Cl)cc2c1C(=O)O [Example 93]
- in vitro HCT-15 ID50 (50 percent inhibition of number of doublings) [1, 2]: 0.06 µg/mL and 0.04 µg/mL
- response vs control in vivo at 50 mg/kg (L1210 leukemia; Mus musculus, L1210, ip, 720 h, 50 mg/kg i.p., nonoptimal Q1DX9 instead of Q3DX9, read-out: L1210 Leukemia % T/C (median survival time)): 101%

SMILES: Cc1c(-c2ccc(-c3ccc(F)cc3)cc2)nc2ccc(F)cc2c1C(=O)O [Example 177]
- in vitro HCT-15 ID50 (50 percent inhibition of number of doublings) [1, 2]: < 0.50 µg/mL
- L1210 Leukemia % T/C (median survival time) (L1210 leukemia; 37.5 mg/kg i.p.): 172%

SMILES: Cc1c(-c2ccc(Oc3ccc(Cl)cc3)cc2)nc2ccc(F)cc2c1C(=O)O [Example 29]
- IC50 [1, 2]: < 0.5 µg/mL
- L1210 Leukemia % T/C (median survival time) (L1210 leukemia; 18 mg/kg i.p.): 194%

SMILES: Cc1c(-c2ccc(Oc3ccccc3)cc2)nc2ccc(Br)cc2c1C(=O)O [Example 53]
- IC50 [1, 2]: < 0.5 µg/mL
- response vs control in vivo at 75 mg/kg (L1210 leukemia; [4]): 136%

SMILES: CCc1ccc2nc(-c3ccc(-c4ccccc4)cc3)c(C)c(C(=O)O)c2c1 [Example 51]
- IC50 [1, 2]: < 0.5 µg/mL
- L1210 Leukemia % T/C (median survival time) (L1210 leukemia; 75 mg/kg i.p.): 173%

SMILES: Cc1ccc2nc(-c3ccc(C4CCCCC4)cc3)c(C)c(C(=O)O)c2c1 [Example 6]
- in vitro HCT-15 ID50 (50 percent inhibition of number of doublings) [1, 2]: 0.24 µg/mL
- response vs control in vivo at 400 mg/kg (L1210 leukemia; Mus musculus, L1210, ip, 720 h, 400 mg/kg i.p., read-out: L1210 Leukemia % T/C (median survival time)): 162%

SMILES: Cc1c(-c2ccc(-c3ccccc3)cc2)nc2ccc(F)c(Cl)c2c1C(=O)O [Example 81, 2-(4-Biphenyl)-5-chloro-6-fluoro-3-methyl-4-quinolinecarboxylic acid]
- IC50 [1, 2]: < 0.5 µg/mL
- response vs control in vivo at 25 mg/kg (L1210 leukemia; [5]): 191%

SMILES: Cc1c(-c2ccc(-c3ccccc3)cc2)nc2cc(F)ccc2c1C(=O)O [Example 87]
- IC50 [1, 2]: < 0.5 µg/mL
- response vs control in vivo at 100 mg/kg (L1210 leukemia; [3]): 146%

SMILES: COc1cccc2c1C(=O)c1c(O)c3c(c(O)c1C2=O)C[C@@](O)(C(=O)CO)C[C@@H]3O[C@H]1C[C@H](N)[C@H](O)[C@H](C)O1 [Adriamycin, reference compound]
- IC50 [1]: 0.01 µg/mL (≈ 0.0184 µM)
- response vs control in vivo at 2 mg/kg (L1210 leukemia; [3]): 183%

SMILES: Cc1c(-c2ccc(-c3ccc(Br)cc3)cc2)nc2ccc(F)cc2c1C(=O)O [Example 102]
- in vitro HCT-15 ID50 (50 percent inhibition of number of doublings) [1, 2]: 1.0 µg/mL and 1.9 µg/mL
- response vs control in vivo at 12.5 mg/kg (L1210 leukemia; [3]): 164%

SMILES: Cc1c(-c2ccc(Oc3ccccc3)cc2)nc2ccc(C(F)(F)F)cc2c1C(=O)O [Example 57]
- IC50 [1, 2]: < 0.5 µg/mL
- response vs control in vivo at 150 mg/kg (L1210 leukemia; Mus musculus, L1210, ip, 720 h, 150 mg/kg i.p., read-out: L1210 Leukemia % T/C (median survival time)): 197%

SMILES: CCc1c(-c2ccc(-c3ccccc3)cc2)nc2ccc(F)cc2c1C(=O)O [Example 18]
- in vitro HCT-15 ID50 (50 percent inhibition of number of doublings) [1, 2]: < 0.50 µg/mL
- response vs control in vivo at 100 mg/kg (L1210 leukemia; [3]): 185%

SMILES: CCc1cccc(-c2ccc(-c3nc4ccc(F)cc4c(C(=O)O)c3C)cc2)c1 [Example 41]
- IC50 [1, 2]: 0.0079 µg/mL (≈ 0.0205 µM)

SMILES: Cc1c(-c2ccc(-c3ccccc3)cc2)nc2cc(Cl)c(Cl)cc2c1C(=O)O [Example 47]
- IC50 [1, 2]: 3.2 µg/mL (≈ 7.84 µM)

SMILES: Cc1ccc2nc(-c3ccc(-c4ccccc4)cc3)c(C)c(C(=O)O)c2c1 [Example 104]
- in vitro HCT-15 ID50 (50 percent inhibition of number of doublings) [1, 2]: 0.22 µg/mL

SMILES: Cc1c(-c2ccc(C3CCCCC3)cc2)nc2ccc(F)cc2c1C(=O)O [Example 169]
- in vitro HCT-15 ID50 (50 percent inhibition of number of doublings) [1, 2]: 0.04 µg/mL

SMILES: Cc1c(-c2ccc(Oc3ccc(F)cc3)cc2)nc2ccc(F)cc2c1C(=O)O [Example 125]
- L1210 Leukemia % T/C (median survival time) (L1210 leukemia; 150 mg/kg i.p.): 150%

SMILES: Cc1c(-c2ccc(C3CCCCC3)cc2)nc2c(Br)cc(Br)cc2c1C(=O)O [Example 46]
- IC50 [1, 2]: 0.42 µg/mL (≈ 0.835 µM)

SMILES: Cc1c(-c2ccc(-c3ccccc3)cc2)nc2ccc(C(F)(F)F)cc2c1C(=O)O [Example 146]
- response vs control in vivo at 37.5 mg/kg (L1210 leukemia; [6]): 164%

SMILES: Cc1c(-c2ccc(-c3ccccc3F)cc2)nc2ccc(F)c(Cl)c2c1C(=O)O [Example 84]
- IC50 [1, 2]: < 0.1 µg/mL

SMILES: Cc1c(-c2ccc(-c3ccccc3)cc2)nc2ccc(I)cc2c1C(=O)O [Example 185]
- response vs control in vivo at 50 mg/kg (L1210 leukemia; [7]): 175%

SMILES: COc1c(-c2ccc(-c3ccccc3)cc2)nc2ccc(F)cc2c1C(=O)O [Example 127]
- L1210 Leukemia % T/C (median survival time) (L1210 leukemia; 50 mg/kg i.p.): 193%

SMILES: Cc1c(-c2ccc(-c3ccccc3)cc2)nc2cc(F)ccc2c1C(=O)O [Example 186]
- response vs control in vivo at 45 mg/kg (L1210 leukemia; Mus musculus, L1210, ip, 720 h, 45 mg/kg i.p., nonoptimal Q1DX9 instead of Q3DX9, read-out: L1210 Leukemia % T/C (median survival time)): 123%

SMILES: CCN(CC)CCOC(=O)c1c(C)c(-c2ccc(-c3ccccc3F)cc2)nc2ccc(F)cc12 [Example 202]
- response vs control in vivo at 59 mg/kg (L1210 leukemia; Mus musculus, L1210, ip, 720 h, 59 mg/kg i.p., read-out: L1210 Leukemia % T/C (median survival time)): 164%

SMILES: Cc1c(-c2ccc(-c3ccccc3)cc2)nc2ccc(I)cc2c1C(=O)O [Example 71]
- response vs control in vivo at 25 mg/kg (L1210 leukemia; [5]): 163%

SMILES: Cc1c(-c2ccc(-c3ccccc3)cc2F)nc2ccc(F)cc2c1C(=O)O [Example 208]
- IC50 [1, 2]: < 0.001 µg/mL

SMILES: Cc1c(-c2ccc(-c3ccccc3F)cc2)nc2ccc(Cl)cc2c1C(=O)O [Example 70]
- IC50 [1, 2]: < 0.1 µg/mL

SMILES: Cc1c(-c2ccc(-c3ccc(Br)cc3)cc2)nc2ccc(Cl)cc2c1C(=O)O [Example 175]
- response vs control in vivo at 12.5 mg/kg (L1210 leukemia; [3]): 156%

SMILES: Cc1c(-c2ccc(-c3ccccc3)cc2)nc2cccc(Cl)c2c1C(=O)O [Example 80]
- IC50 [1, 2]: < 0.5 µg/mL

SMILES: Cc1ccc(-c2ccc(-c3nc4ccc(F)cc4c(C(=O)O)c3C)cc2)cc1C [Example 39]
- IC50 [1, 2]: < 0.1 µg/mL

SMILES: Cc1c(-c2ccc(-c3ccc(F)cc3)cc2)nc2ccc(Cl)cc2c1C(=O)O [Example 113]
- L1210 Leukemia % T/C (median survival time) (L1210 leukemia; 25 mg/kg i.p.): 166%

SMILES: Cc1c(-c2ccc(Oc3ccccc3)cc2)nc2ccc(Br)cc2c1C(=O)O [Example 143]
- response vs control in vivo at 37.5 mg/kg (L1210 leukemia; [6]): 132%

SMILES: Cc1c(-c2ccc(C3CCCCC3)cc2)nc2ccc(Br)cc2c1C(=O)O [Example 135]
- L1210 Leukemia % T/C (median survival time) (L1210 leukemia; 400 mg/kg i.p.): 160%

SMILES: Cc1c(-c2ccc(C3CCCCC3)cc2)nc2ccc(C(F)(F)F)cc2c1C(=O)O [Example 48]
- IC50 [1, 2]: 0.1 µg/mL (≈ 0.242 µM)

SMILES: Cc1c(-c2ccc(-c3ccccc3)cc2)nc2cc(Cl)c(F)cc2c1C(=O)O [Example 61]
- response vs control in vivo at 75 mg/kg (L1210 leukemia; [4]): 160%

SMILES: Cc1c(-c2ccc(-c3ccccc3)cc2)nc2cc(Cl)cc(Cl)c2c1C(=O)O [Example 165]
- response vs control in vivo at 50 mg/kg (L1210 leukemia; [7]): 128%

SMILES: Cc1c(-c2ccc(-c3ccccc3)cc2)nc2ccc(F)c(Cl)c2c1C(=O)O [Example 164, Sodium 2-(4-Biphenylyl)-5-chloro-6-fluoro-3-methylquinoline-4-carboxylate]
- response vs control in vivo at 22.5 mg/kg (L1210 leukemia; Mus musculus, L1210, ip, 720 h, read-out: L1210 Leukemia % T/C (median survival time), 22.5 mg/kg i.p.): 234%

Source: patent US5032597A, “Method of using phenylquinolinecarboxylic acids and derivatives for lymthoid leukemia treatment in a mammal” (priority 1987, dated 1991)
